Laboratory results taken from the NIST ThermoML archive (doi:10.1021/je400529k).

Experiments:
[1] = xn = mol fraction of the nth substance listed; conditions: 101 kPa, Liquid; for viscosity: Capillary tube (Ostwald / Ubbelohde) method; for mass density: Vibrating tube method
[2] = refractive index (Na D-line) (dimensionless); xn = mol fraction of the nth substance listed; conditions: 101 kPa, Liquid, Standard Abbe refractometry

C1C[C@@H]2[C@H]3CC[C@H](C3)[C@@H]2C1 [exo-tetrahydrodicyclopentadiene] + C1CCCCC1
Conditions | mass density, [1] [kg/m3] | refractive index, [2] | viscosity, [1] [mPa·s]
293.15 K, x1 = 0.0998 | 799.53 | 1.4357 | 1.13
293.15 K, x1 = 0.2006 | 819.11 | 1.4426 | 1.296
293.15 K, x1 = 0.3003 | 837.1 | 1.4495 | 1.462
293.15 K, x1 = 0.3996 | 853.82 | 1.4564 | 1.633
293.15 K, x1 = 0.4987 | 869.42 | 1.4624 | 1.814
293.15 K, x1 = 0.6005 | 884.43 | 1.4683 | 2.016
293.15 K, x1 = 0.7002 | 898.3 | 1.4732 | 2.231
293.15 K, x1 = 0.8008 | 911.5 | 1.4781 | 2.463
293.15 K, x1 = 0.9 | 923.87 | 1.4829 | 2.72
293.15 K, x1 = 1 | 935.72 | 1.4874 | 2.992
298.15 K, x1 = 0.0998 | 794.92 | – | 1.032
298.15 K, x1 = 0.2006 | 814.56 | – | 1.18
298.15 K, x1 = 0.3003 | 832.65 | – | 1.327
298.15 K, x1 = 0.3996 | 849.45 | – | 1.481
298.15 K, x1 = 0.4987 | 865.15 | – | 1.645
298.15 K, x1 = 0.6005 | 880.23 | – | 1.828
298.15 K, x1 = 0.7002 | 894.2 | – | 2.024
298.15 K, x1 = 0.8008 | 907.48 | – | 2.236
298.15 K, x1 = 0.9 | 919.92 | – | 2.466
298.15 K, x1 = 1 | 931.84 | – | 2.71
303.15 K, x1 = 0.0998 | 790.27 | 1.4305 | 0.948
303.15 K, x1 = 0.2006 | 809.99 | 1.4373 | 1.08
303.15 K, x1 = 0.3003 | 828.19 | 1.4449 | 1.212
303.15 K, x1 = 0.3996 | 845.07 | 1.4512 | 1.351
303.15 K, x1 = 0.4987 | 860.86 | 1.4582 | 1.5
303.15 K, x1 = 0.6005 | 876.06 | 1.4633 | 1.668
303.15 K, x1 = 0.7002 | 890.08 | 1.4689 | 1.846
303.15 K, x1 = 0.8008 | 903.43 | 1.4739 | 2.037
303.15 K, x1 = 0.9 | 915.95 | 1.4789 | 2.248
303.15 K, x1 = 1 | 927.94 | 1.4831 | 2.467
308.15 K, x1 = 0.0998 | 785.6 | – | 0.874
308.15 K, x1 = 0.2006 | 805.41 | – | 0.993
308.15 K, x1 = 0.3003 | 823.69 | – | 1.113
308.15 K, x1 = 0.3996 | 840.68 | – | 1.239
308.15 K, x1 = 0.4987 | 856.56 | – | 1.375
308.15 K, x1 = 0.6005 | 871.85 | – | 1.528
308.15 K, x1 = 0.7002 | 885.97 | – | 1.691
308.15 K, x1 = 0.8008 | 899.4 | – | 1.866
308.15 K, x1 = 0.9 | 911.98 | – | 2.056
308.15 K, x1 = 1 | 924.02 | – | 2.255
313.15 K, x1 = 0.0998 | 780.9 | 1.4238 | 0.808
313.15 K, x1 = 0.2006 | 800.82 | 1.4319 | 0.917
313.15 K, x1 = 0.3003 | 819.19 | 1.439 | 1.026
313.15 K, x1 = 0.3996 | 836.28 | 1.4456 | 1.141
313.15 K, x1 = 0.4987 | 852.26 | 1.453 | 1.267
313.15 K, x1 = 0.6005 | 867.63 | 1.4583 | 1.407
313.15 K, x1 = 0.7002 | 881.85 | 1.4642 | 1.555
313.15 K, x1 = 0.8008 | 895.35 | 1.4689 | 1.715
313.15 K, x1 = 0.9 | 907.1 | 1.4737 | 1.888
313.15 K, x1 = 1 | 920.11 | 1.4786 | 2.069
318.15 K, x1 = 0.0998 | – | – | 0.751
318.15 K, x1 = 0.2006 | – | – | 0.848
318.15 K, x1 = 0.3003 | – | – | 0.949
318.15 K, x1 = 0.3996 | – | – | 1.055
318.15 K, x1 = 0.4987 | – | – | 1.169
318.15 K, x1 = 0.6005 | – | – | 1.298
318.15 K, x1 = 0.7002 | – | – | 1.435
318.15 K, x1 = 0.8008 | – | – | 1.581
318.15 K, x1 = 0.9 | – | – | 1.741
318.15 K, x1 = 1 | – | – | 1.907

C1C[C@@H]2[C@H]3CC[C@H](C3)[C@@H]2C1 [exo-tetrahydrodicyclopentadiene] + CCCCC1CCCCC1
Conditions | mass density, [1] [kg/m3] | refractive index, [2] | viscosity, [1] [mPa·s]
293.15 K, x1 = 0.1 | 811.06 | 1.444 | 1.391
293.15 K, x1 = 0.1993 | 822.96 | 1.4478 | 1.49
293.15 K, x1 = 0.2997 | 835.42 | 1.4521 | 1.602
293.15 K, x1 = 0.3991 | 848.2 | 1.4568 | 1.732
293.15 K, x1 = 0.5002 | 861.66 | 1.4613 | 1.879
293.15 K, x1 = 0.6005 | 875.49 | 1.466 | 2.044
293.15 K, x1 = 0.7 | 889.72 | 1.4712 | 2.234
293.15 K, x1 = 0.8004 | 904.57 | 1.4766 | 2.446
293.15 K, x1 = 0.8999 | 919.8 | 1.4818 | 2.688
293.15 K, x1 = 1 | 935.72 | 1.4874 | 2.992
298.15 K, x1 = 0.1 | 807.31 | – | 1.279
298.15 K, x1 = 0.1993 | 819.19 | – | 1.367
298.15 K, x1 = 0.2997 | 831.63 | – | 1.467
298.15 K, x1 = 0.3991 | 844.39 | – | 1.584
298.15 K, x1 = 0.5002 | 857.83 | – | 1.715
298.15 K, x1 = 0.6005 | 871.64 | – | 1.863
298.15 K, x1 = 0.7 | 885.86 | – | 2.032
298.15 K, x1 = 0.8004 | 900.7 | – | 2.224
298.15 K, x1 = 0.8999 | 915.95 | – | 2.438
298.15 K, x1 = 1 | 931.84 | – | 2.71
303.15 K, x1 = 0.1 | 803.53 | 1.4393 | 1.181
303.15 K, x1 = 0.1993 | 815.39 | 1.4435 | 1.261
303.15 K, x1 = 0.2997 | 827.82 | 1.448 | 1.351
303.15 K, x1 = 0.3991 | 840.57 | 1.4522 | 1.456
303.15 K, x1 = 0.5002 | 853.98 | 1.457 | 1.574
303.15 K, x1 = 0.6005 | 867.78 | 1.4619 | 1.707
303.15 K, x1 = 0.7 | 881.99 | 1.4669 | 1.858
303.15 K, x1 = 0.8004 | 896.81 | 1.4718 | 2.031
303.15 K, x1 = 0.8999 | 912.05 | 1.4774 | 2.223
303.15 K, x1 = 1 | 927.94 | 1.4831 | 2.467
308.15 K, x1 = 0.1 | 799.75 | – | 1.096
308.15 K, x1 = 0.1993 | 811.6 | – | 1.168
308.15 K, x1 = 0.2997 | 824.01 | – | 1.249
308.15 K, x1 = 0.3991 | 836.73 | – | 1.344
308.15 K, x1 = 0.5002 | 850.13 | – | 1.451
308.15 K, x1 = 0.6005 | 863.92 | – | 1.571
308.15 K, x1 = 0.7 | 878.11 | – | 1.707
308.15 K, x1 = 0.8004 | 892.92 | – | 1.862
308.15 K, x1 = 0.8999 | 908.14 | – | 2.036
308.15 K, x1 = 1 | 924.02 | – | 2.255
313.15 K, x1 = 0.1 | 795.96 | 1.435 | 1.02
313.15 K, x1 = 0.1993 | 807.79 | 1.4391 | 1.085
313.15 K, x1 = 0.2997 | 820.18 | 1.4435 | 1.159
313.15 K, x1 = 0.3991 | 832.89 | 1.448 | 1.245
313.15 K, x1 = 0.5002 | 846.27 | 1.4524 | 1.342
313.15 K, x1 = 0.6005 | 860.05 | 1.4575 | 1.451
313.15 K, x1 = 0.7 | 874.22 | 1.4626 | 1.573
313.15 K, x1 = 0.8004 | 889.02 | 1.4677 | 1.715
313.15 K, x1 = 0.8999 | 904.23 | 1.4728 | 1.872
313.15 K, x1 = 1 | 920.11 | 1.4786 | 2.069
318.15 K, x1 = 0.1 | 792.17 | – | 0.952
318.15 K, x1 = 0.1993 | 803.98 | – | 1.012
318.15 K, x1 = 0.2997 | 816.35 | – | 1.079
318.15 K, x1 = 0.3991 | 829.04 | – | 1.157
318.15 K, x1 = 0.5002 | 842.41 | – | 1.246
318.15 K, x1 = 0.6005 | 856.16 | – | 1.345
318.15 K, x1 = 0.7 | 870.32 | – | 1.456
318.15 K, x1 = 0.8004 | 885.11 | – | 1.585
318.15 K, x1 = 0.8999 | 900.32 | – | 1.727
318.15 K, x1 = 1 | 916.18 | – | 1.907
